Measurements taken from US20160038563A1, “MOLECULAR TARGETS FOR HEALING OR TREATING WOUNDS” (University College Cardiff Consultants Limited, priority 2010, published 2016).
“Also recorded” adds a separate entry of the source.

Columns and labels:
HaCaT cells [1] = test: ECIS cell migration assay (electric wounding) and micromotion; type: cell-based, human; conditions: for resistance following wounding (migration): measured at 400 Hz; for cell migration of transfected HaCaT cells: vs wild type HaCaT, electric wounding, ECIS
Excerpt: • 1. Cells and Human keratinocytes and melanoma Cells (HaCaT-from The German Cancer Institute/Cell Service, Germany and A431—from ATCC), human vascular endothelial cell, HECV (from Interlab, Italy) were used. Recombinant human HGF was from the research laboratory. nWASP inhibitors, Wiskostatin and 187-1 were from Merck Pharmaceuticals and TOCRIS, respectively. Tissue collection and preparation of RNA/cDNA bank from human wound/skin tissues. Fresh tissues from abnormal/chronic wounds (n=14), acute wounds (n=10) and normal skin from healthy volunteers (n=10) were collected under an approval from the local ethical committee (Ethical approval ID: 05/WSE03/92) and stored in −80° C. until use. Written informed consent was obtained from each patient who agreed for a biopsy to be taken. Tissues were frozen sectioned on a cryostat (Leica). A portion of the sections were kept for histological analysis. Approximate 20 sections were pooled and homogenised using a hand-held homogenizer using a procedure to extract RNA from the tissues. RNA extracted from the tissues was quantified and cDNA was subsequently generated using a RT kit. Abnormal/chronic wound tissues were from patients with abnormal/chronic leg ulcers. Acute wound tissues were obtained from patients with acute surgical wounds after undergoing excision of pilonidal disease. Normal tissues were from normal volunteer's normal skin. • 2. Analysis of nWASP gene transcripts was carried out using conventional and quantitative real time PCR (Icycler IQ, Bio-Rad) on human wound and skin tissues and cells. For conventional PCR, primers used were: NWASPF8 (5′agtccctatcactttcctc′3) (SEQ ID NO 1) and NWASPR8 (5′[…]′3) (SEQ ID NO 2) and NWASPF9 (5′[…]′3) (SEQ ID NO 3) and NWASPR9 (5′[…]′3) (SEQ ID NO 4). For Q-PCR primers used were nWASPF1 and NWASPZR1 (5′[…]′3) (SEQ ID NO 5) and (5′[…]′3) (SEQ ID NO 6). • 3. The study adopted the Ampliflor quantitation technology, in which one set of gene specific primers and a Uniprimer probes were used, in combination with quantitative PCR master mix. The reaction was carried out using ICycler^IQ (Bio-Rad). An internal standard was employed for quantitation purpose. In all the assays, GAPDH and actin were amplified and used as the house keeping controls. Levels of a specific gene was normalised to the expression level of GAPDH in the respective sample for example, nWASP, GAPDH and actin transcripts (mRNA) were measure in the same sample. nWASP was then normalised to GAPDH. • 4. Evaluation of cells response to wound stress after n-WASP is targeted. Here, an in vitro cell model, based on the ECIS system, was adopted. Briefly, cells were allowed to sit in the electric arrays and an 8E10 format was used. Cells in fixed number and fixed volume of culture medium were added into each of the respective wells, which had either control medium or a specific inhibitor to N-WASP, namely Wiskostatin or 187-1. In selected wells, a cell migration inducer, HGF was also included in the absence or presence of the nWASP inhibitors. Cells were investigated for the following functions: the adhesiveness to the matrix surface and the migration capacity. The first was recorded immediately after plating of the cells into each well at 3 frequencies: 400 Hz, 4,000 Hz, and 40,000 Hz. The frequencies were chosen following a frequency scanning (FIG. 3). Two main cell functions were thus tested here: the adhesiveness of the cells to matrix and cell migration. • 5. Creation of cell models. We have created a new cell model, based on a human keratinocyte cell line, HaCaT, which expressed high levels of n-WASP. By using anti-nWASP transgenes, we successfully knocked out the expression of n-WASP from the cells and subsequently used the cells in our testing. Briefly, the secondary structure (FIG. 2) of human nWASP was generated using Zuker's RNA mFold software. Three suitable sites for targeting within the nWASP mRNA were identified. […]

HaCaT cells [2] = test: ECIS cell adhesion assay; type: cell-based, human
Excerpt: (§1) • 1. Cells and Human keratinocytes and melanoma Cells (HaCaT-from The German Cancer Institute/Cell Service, Germany and A431—from ATCC), human vascular endothelial cell, HECV (from Interlab, Italy) were used. Recombinant human HGF was from the research laboratory. nWASP inhibitors, Wiskostatin and 187-1 were from Merck Pharmaceuticals and TOCRIS, respectively. Tissue collection and preparation of RNA/cDNA bank from human wound/skin tissues. Fresh tissues from abnormal/chronic wounds (n=14), acute wounds (n=10) and normal skin from healthy volunteers (n=10) were collected under an approval from the local ethical committee (Ethical approval ID: 05/WSE03/92) and stored in −80° C. until use. Written informed consent was obtained from each patient who agreed for a biopsy to be taken. Tissues were frozen sectioned on a cryostat (Leica). A portion of the sections were kept for histological analysis. Approximate 20 sections were pooled and homogenised using a hand-held homogenizer using a procedure to extract RNA from the tissues. RNA extracted from the tissues was quantified and cDNA was subsequently generated using a RT kit. Abnormal/chronic wound tissues were from patients with abnormal/chronic leg ulcers. Acute wound tissues were obtained from patients with acute surgical wounds after undergoing excision of pilonidal disease. Normal tissues were from normal volunteer's normal skin. • 2. Analysis of nWASP gene transcripts was carried out using conventional and quantitative real time PCR (Icycler IQ, Bio-Rad) on human wound and skin tissues and cells. […] The study adopted the Ampliflor quantitation technology, in which one set of gene specific primers and a Uniprimer probes were used, in combination with quantitative PCR master mix. […] An internal standard was employed for quantitation purpose. […] The first was recorded immediately after plating of the cells into each well at 3 frequencies: 400 Hz, 4,000 Hz, and 40,000 Hz. […]

[3] = test system: HECV cells transfected and forced to express nWASP; test: endothelial tubule forming assay, HECV forced to express nWASP; type: cell-based, human; conditions: nWASP expressing HECV cells, after 48 hours
HECV cells = test: endothelial tubule forming assay, HECV wild type (negative for nWASP); type: cell-based, human; conditions: HECV cells negative for nWASP expression
wound in db/db mice = test: in vivo efficacy test, wound healing (ear punch wound); conditions: for size of wounds vs control: after three weeks
Excerpt: (§2) The diabetic strain of db/db was obtained from Harlan. 4-6 weeks old with body weight at 20 g were used. […] Briefly, after being housed for a week, the db/db mice were first ear-pieced using an ear puncher, in order to create a wound (hole) of 1 mm in diameter. The following day after wound creation, all the db/db were weighed, wound photographed using a digital camera. Treatment was given systemically (by IP injection) or topically (by manually applying the compounds in gel into the wound area). Both treatments were given every other day. Images were obtained weekly. The size of the wounds was determined using an image analysis software. Data are given in two ways:
1. the area of the wounds in pixels. Two sample student t test was used for statistical analysis. 2. change of the size of wound over the starting point calculated using: (area at a given point—area at the starting point)/(area of the starting point)×100. Bonferroni model was used for data analysis.
Wiskostatin was first dissolved in DMSO at concentration of 5 mg/ml. The DMSO solution was then gradually diluted in BSS in order to avoid precipitation. The solutions were prepared such that each 100 ul contained the correct amount of compounds and was aliquatted and stored at −20° C. until used. The compounds were injected every other day by the IP route. […] Treatment was given every other working day (Monday, Wednesday and Friday) and the images obtained on Wednesday.
For topical application, we used two conventional carrier gels (purchased from Pharmacy of University Hospital of Wales) that are currently used in wound care. […] For use, a small amount (150 ul) of the gel was applied to the wound area and gently rubbed in using fingers. Treatment was given every other working day (Monday, Wednesday and Friday) and the images obtained on Wednesday.

[4] = tolerance in db/db strain; type: in vivo, db/db mice; conditions: administered systemically (IP), efficacy study
Description: (§3) First, the main tolerance tests were conducted using the CD-1 athymic mice (Charles River Laboratories), owing to their slow and steady rate of growth and easier to observe changes in the skin (hairless) and other possible side effects. Briefly, CD-1 of 4-6 weeks old, 20 g in weight, were housed in filter topped cages. […] Both compounds were given at […] final concentration in 100 ul in volume. […] CD-1 were observed daily, weighed twice weekly. An additional tolerance and efficacy test was carried out using the db/db strain.
as §2
Wiskostatin was first dissolved in DMSO at concentration of 5 mg/ml. The DMSO solution was then gradually diluted in BSS in order to avoid precipitation. […]

[5] = in vivo tolerance test in CD-1 athymic mice; conditions: intraperitoneal, daily, 1 and 10 uM, two weeks
Description: as §3

HaCaT cells [6] = test: growth of HaCaT cells; type: cell-based, human
nWASP mRNA = test: knock down of nWASP mRNA in HaCaT cells by anti-nWASP transgenes (RT-PCR); type: cell-based, human; conditions: HaCaT cells after transfection (electroporation)
Excerpt: as §1, with “Written informed consent was obtained from each patient who agreed for a biopsy to be taken. Tissues were frozen sectioned on a cryostat (Leica). A portion of the sections were kept for histological analysis. Approximate 20 sections were pooled and homogenised using a hand-held homogenizer using a procedure to extract RNA from the tissues.” left out, “Abnormal/chronic wound tissues were from patients with abnormal/chronic leg ulcers. Acute wound tissues were obtained from patients with acute surgical wounds after undergoing excision of pilonidal disease. Normal tissues were from normal volunteer's normal skin. • 2.” left out

## HGF: recombinant human HGF, cell migration inducer / positive control
HaCaT cells [1]; HGF 40 ng/ml
  migration of control HaCaT cells: increased the migration of control HaCaT cells
  migration of nWASP transgene carrying HaCaT cells: some limited effect
HaCaT cells [2]; HGF 40 ng/ml alone vs control cells
  adhesiveness of HaCaT cells: increased the adhesiveness

## Wiskostatin
[3]
  tubule forming: strong stimulatory effect on tubule forming

## CN(C)C[C@H](O)Cn1c2ccc(Br)cc2c2cc(Br)ccc21 (racemic) [Wiskostatin]
HECV cells
  tubule formation: neither 187-1 nor Wiskostatin had a major impact
HaCaT cells [1]; 1 nM
  resistance following wounding (migration): rapid rise of resistance
HaCaT cells [1]; 10 nM
  resistance following wounding (migration): rapid rise of resistance
HaCaT cells [1]; electric wounding assay
  migration of HaCaT cells: Increased the Migration
HaCaT cells [2]; Wiskostatin 1, 10, 100 nM, 400, 4,000, 40,000 Hz, particularly at 40,000 Hz
  adhesiveness of HaCaT cells to matrix surface: increased the adhesiveness
HaCaT cells [2]; with HGF 40 ng/ml, Wiskostatin 1, 10, 100 nM
  HGF-induced adhesiveness of HaCaT cells: further increased the adhesiveness
Wound in db/db mice; Wiskostatin systemic 1 μM, p=0.017
  size of wounds vs control: significantly reduced the size of the wounds; also recorded: significant reduction of the size of wound
Wound in db/db mice; Wiskostatin systemic 10 μM, p=0.04
  size of wounds vs control: significantly reduced the size of the wounds; also recorded: significant reduction of the size of wound
Wound in db/db mice; Wiskostatin topical-A gel, p=0.044
  size of wounds vs control: significant effect
Wound in db/db mice; Wiskostatin topical-B gel, p=0.044
  size of wounds vs control: significant effect
Wound in db/db mice; administered systemically (IP), every other day
  wound healing: Significantly Accelerated Wound Healing
Wound in db/db mice; administered topically in gel
  wound healing: Significant Effect
[4]
  side effects: without Producing any Side Effects
[5]
  tolerability: Well Tolerated
HaCaT cells [6]
  growth of HaCaT cells: limited inhibitory effect on the growth and only at a high concentration
HaCaT cells [6]; all effects on cell functions
  effective concentrations relative to those causing toxicity and growth changes: far below those that may cause toxicity and growth changes

B1: transgene-3: anti-nWASP antisense-hammerhead ribozyme/RNA transgene, SEQ ID NO 19, cloned into pEF6/V5/His TOPO (nucleic acid, listed as Homo sapiens)
DNA: CTGCAGGTGCAGCTGTGGGAGCTCTTCTGATGAGTCCGTGAGGACGAAAAGGTGGTGGGGGAGGAGCGCCTCTTCCCCTAGCCTAGT
HaCaT cells [1]
  cell migration of transfected HaCaT cells: dramatic increase in cell migration

B2: transgene-1: anti-nWASP antisense-hammerhead ribozyme/RNA transgene, SEQ ID NO 17, cloned into pEF6/V5/His TOPO (nucleic acid, listed as Homo sapiens)
DNA: CTGCAGGAGTTCTTTGACCACATACAGTTCCCTGATGAGTCCGTGAGGACGAAATCTGCTGCATATAACTGCACCACACTAGT
nWASP mRNA
  knocking down nWASP mRNA/transcript: active in knocking down

B3: transgene-2: anti-nWASP antisense-hammerhead ribozyme/RNA transgene, SEQ ID NO 18, cloned into pEF6/V5/His TOPO (nucleic acid, listed as Homo sapiens)
DNA: CTGCAGACAAGCAACACCACTGCACTTCTTTCTGATGAGTCCGTGAGGACGAAACCACATACAGTTCCGATCTGCTGCATATAACTAGT
HaCaT cells [1]
  cell migration of transfected HaCaT cells: dramatic increase in cell migration
nWASP mRNA
  knocking down nWASP mRNA/transcript: active in knocking down; also recorded: highly active
